In patent US9822115B2, “Nitrogen containing compounds and their use as antibacterial agents” (WOCKHARDT LIMITED, priority 2014, dated 2017):
In brackets after ≈: the same amount, converted by molar mass. Where two headings read alike, the source gives them in different places.

What was measured:
Format in all cases: cell-based
[1] = test system: K. pneumoniae H521 (KPC, SHV, TEM); experiment: Antibacterial activity, MIC by agar dilution (CLSI); settings: Klebsiella pneumoniae, read-out: MIC
Method in brief: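 Agar dilution per CLSI on Mueller Hinton agar with doubling compound dilutions, about 10^4 CFU/spot by multipoint inoculator. Plates incubated 16-20 h at 35±2° C in ambient air; procedure also gives 37° C for 18 h. MIC (mcg/ml) scored as growth or no growth.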

E. coli NCTC 13353 = experiment: Zone of inhibition, compound alone and in combination with ceftazidime (agar well); settings: Escherichia coli, NCTC13353, E. coli NCTC 13353, read-out: Diameter of Zone of Inhibition; for zone of inhibition at 0.25 µg/disc: 0.25 μg/well; for zone of inhibition at 0.5 µg/disc: 0.5 μg/well; for zone of inhibition at 1 µg/disc: 1 μg/well
Method: (§1) Determination of antibacterial activity of combinations according to invention: In a typical experiment, two sets of plates containing growth media (Molten Mueller Hilton Agar) and bacterial strains were prepared. One set of plates was taken as control (without ceftazidime) and other set contained ceftazidime. The media was allowed to solidify and wells were punched later. A two-fold serial dilution range of each of the compounds according to invention was prepared and 50 μl of each of the dilution was added into the punched well. […] The Table 5 provides the antibacterial activity of the combination comprising compounds according to invention and ceftazidime.

E. coli M50 = experiment: as above; settings: Escherichia coli, M50, E. coli M50, read-out: Diameter of Zone of Inhibition; for zone of inhibition at 0.25 µg/disc: 0.25 μg/well; for zone of inhibition at 0.5 µg/disc: 0.5 μg/well; for zone of inhibition at 1 µg/disc: 1 μg/well
Method: as §1

[2] = Table 2, K. pneumoniae H521 (KPC, SHV, TEM)
[3] = Compound + Ceftazidime (10 μg/ml)

Compound: NCCOc1ccccc1CC(=O)NNC(=O)[C@@H]1CC[C@@H]2CN1C(=O)N2OS(=O)(=O)O [Example 2, (2S,5R)-Sulfuric Acid mono-[2-(N′-{2-[2-(2-amino-ethoxy)-phenyl]-acetyl}-hydrazinocarbonyl)-7-oxo-1,6-diaza-bicyclo[3.2.1]oct-6-yl]ester]
- MIC [1, 2]: 1 µg/mL (≈ 2.19 µM)
- MIC ([1]; Table 3, K. pneumoniae H 521): 2 µg/mL (≈ 4.37 µM)
- zone of inhibition at 0.25 µg/disc (E. coli NCTC 13353; [3]): 21 mm
- zone of inhibition at 0.5 µg/disc (E. coli NCTC 13353; [3]): 24 mm
- zone of inhibition at 1 µg/disc (E. coli NCTC 13353; [3]): 28 mm
- zone of inhibition at […] (E. coli NCTC 13353; [3]): 17 mm
- zone of inhibition at 0.25 µg/disc (E. coli NCTC 13353; Compound alone): 11 mm
- zone of inhibition at 0.5 µg/disc (E. coli NCTC 13353; Compound alone): 14 mm
- zone of inhibition at 1 µg/disc (E. coli NCTC 13353; Compound alone): 16 mm
- zone of inhibition at 0.25 µg/disc (E. coli M50; [3]): 13 mm
- zone of inhibition at 0.5 µg/disc (E. coli M50; [3]): 16.5 mm
- zone of inhibition at 1 µg/disc (E. coli M50; [3]): 18.5 mm
- zone of inhibition at […] (E. coli M50; [3]): 10 mm
- zone of inhibition at 0.25 µg/disc (E. coli M50; Compound alone): 10 mm
- zone of inhibition at 0.5 µg/disc (E. coli M50; Compound alone): 14 mm
- zone of inhibition at 1 µg/disc (E. coli M50; Compound alone): 16 mm

Compound: O=C(Cc1ccc(O)cc1)NNC(=O)[C@@H]1CC[C@@H]2CN1C(=O)N2OS(=O)(=O)[O-].[Na+] [Example 1, Sodium Salt of (2S,5R)-Sulfuric Acid mono-[2-(N′-(4-hydroxyphenyl-acetyl)-hydrazinocarbonyl)-7-oxo-1,6-diaza-bicyclo[3.2.1]oct-6-yl]ester]
- MIC [1, 2]: 1 µg/mL
- MIC ([1]; Table 3, K. pneumoniae H 521): 1 µg/mL
- zone of inhibition at 0.25 µg/disc (E. coli NCTC 13353; [3]): 18 mm
- zone of inhibition at 0.5 µg/disc (E. coli NCTC 13353; [3]): 21 mm
- zone of inhibition at 1 µg/disc (E. coli NCTC 13353; [3]): 25 mm
- zone of inhibition at […] (E. coli NCTC 13353; [3]): 16 mm
- zone of inhibition at 0.25 µg/disc (E. coli NCTC 13353; Compound alone): 14.5 mm
- zone of inhibition at 0.5 µg/disc (E. coli NCTC 13353; Compound alone): 15.5 mm
- zone of inhibition at 1 µg/disc (E. coli NCTC 13353; Compound alone): 17 mm
- zone of inhibition at 0.25 µg/disc (E. coli M50; [3]): 16 mm
- zone of inhibition at 0.5 µg/disc (E. coli M50; [3]): 19 mm
- zone of inhibition at 1 µg/disc (E. coli M50; [3]): 22 mm
- zone of inhibition at […] (E. coli M50; [3]): 13 mm
- zone of inhibition at 0.25 µg/disc (E. coli M50; Compound alone): 12 mm
- zone of inhibition at 0.5 µg/disc (E. coli M50; Compound alone): 13.5 mm
- zone of inhibition at 1 µg/disc (E. coli M50; Compound alone): 16 mm
